Experiments:
Plasmodium falciparum [1] = experiment: NOVARTIS: Inhibition of Plasmodium falciparum 3D7 (drug-susceptible) proliferation in erythrocyte-based infection assay; assay type: functional, organism-based; conditions: Plasmodium falciparum, 3D7
[2] = NOVARTIS: Cytotoxicity against human hepatocellular carcinoma cell line (Huh7); assay type: toxicity, cell-based, Huh-7; conditions: Huh7 cells (hepatocellular carcinoma cell line)
Plasmodium falciparum [3] = experiment: NOVARTIS: Inhibition of Plasmodium falciparum W2 (drug-resistant) proliferation in erythrocyte-based infection assay; assay type: functional, organism-based; conditions: Plasmodium falciparum, W2; read-out: EC50

SMILES | EC50 (Plasmodium falciparum [1]) | CC50 [2] | EC50 (Plasmodium falciparum [3])
O=C(O)C1Cc2c([nH]c3ccccc23)C(c2ccc(Cl)cc2Cl)N1 (stereo not given) | 1020 nM | > 100000 nM | 688 nM
COc1cc2nc(NCC3CCCO3)n3nc(-c4ccccc4)nc3c2cc1OC (stereo not given) | 293 nM | > 100000 nM | 662 nM
O=C(NCCCCCCCCCCNC(=O)Nc1ccc(C2=NCCCN2)cc1)Nc1ccc(C2=NCCCN2)cc1 | 54.2 nM | > 10000 nM | 69.3 nM
Cc1ccc(N(C(=O)c2snc(C(=O)NC3CCCCC3)c2N)C(C(=O)NCCc2ccccc2)c2ccc(O)cc2)c(C)c1 (stereo not given) | 1480 nM | > 100000 nM | 672 nM
N=c1n(Cc2ccccc2)c2ccccc2n1CC(O)c1ccc(Cl)c(Cl)c1 (stereo not given) | 214 nM | 6590 nM | 43.6 nM
COc1ccc2nc(C)cc(Nc3cccc(O)c3)c2c1 | 228 nM | 51000 nM | 347 nM
COc1cc(C(=O)NCCc2ccccn2)ccc1OC1CCN(CC(c2ccccc2)c2ccccc2)CC1 | 440 nM | 13000 nM | 86.4 nM
CC(=O)c1cccc(S(=O)(=O)NCCCNc2nc3cc(C)cc(C)c3cc2C#N)c1 | 1150 nM | > 100000 nM | 698 nM
Cc1[nH]c2ccccc2c(=O)c1Br | 532 nM | > 100000 nM | 686 nM
Cc1c(C=O)c2ccccc2n1CC(=O)Nc1cccc(I)c1 | 365 nM | > 61200 nM | 405 nM
CN1CCN(c2nc(NN=Cc3cc(I)ccc3O)nc(Nc3ccc([N+](=O)[O-])cc3)n2)CC1 | 383 nM | 47700 nM | 316 nM
Fc1ccc(Nc2nc(NCc3ccccc3)c3ccccc3n2)cc1 | 75.5 nM | 8870 nM | 58.6 nM
CCCn1cc(SCC(=O)NCc2ccco2)c2ccccc21 | 1020 nM | > 100000 nM | 673 nM
O=C(NCCCCNC(=O)Nc1cccc(C2=NCCN2)c1)Nc1cccc(C2=NCCN2)c1 | 203 nM | > 10000 nM | 67.2 nM
CCOC(=O)C1=C(C)NC2=C(C(=O)C(C(=O)OCC)C(c3cccc(OC)c3)C2)C1c1ccc(Br)cc1 (stereo not given) | 2170 nM | > 100000 nM | 671 nM
Oc1ccc(-c2cncnc2)cc1CNC1CCN(Cc2ccccc2)CC1 | 698 nM | > 100000 nM | 671 nM
CC(=O)c1cc(CN2CCC(C(=O)Nc3ccc(-n4nc(C)cc4C)cc3)CC2)cs1 | 969 nM | > 100000 nM | 665 nM
CN1CCc2c(sc3nc(SCc4ccccc4)n(-c4ccccc4)c(=O)c23)C1 | 1770 nM | > 100000 nM | 670 nM
CN1CCN(c2nc(NN=Cc3cccc(Cl)c3)nc(Nc3ccc([N+](=O)[O-])cc3)n2)CC1 | 500 nM | 43400 nM | 290 nM
O=C(NCc1ccc2c(c1)OCO2)C1CNCC1c1ccc(C(F)(F)F)cc1 (stereo not given) | 325 nM | 54300 nM | 362 nM
Brc1ccc(/C=C/c2cc[n+](Cc3ccccc3)cc2)cc1 | 112 nM | > 10000 nM | 66.6 nM
CCc1ccc2[nH]c(=O)c(CN(CCCN(CC)CC)C(=S)NCCCN(C)C)cc2c1 | 2040 nM | > 100000 nM | 664 nM
Cc1ccc(N=Nc2nc3ccccc3n2C)c(C)c1 | 87.5 nM | 3600 nM | 24.1 nM
CC1=CC(=C(C#N)c2nc3ccccc3s2)C=C(C)N1CC1CCCO1 (stereo not given) | 411 nM | > 100000 nM | 670 nM

SMILES | EC50 (Plasmodium falciparum [1]) | CC50 [2] | EC50 (Plasmodium falciparum [3])
CCOC(=O)c1c(CNC)n(C)c2cc(Br)c(O)cc12 | 458 nM | > 100000 nM | 691 nM
Cc1ccc(C=NNC(=O)c2nnn(-c3nonc3N)c2-c2ccc([N+](=O)[O-])cc2)cc1 | 204 nM | > 73000 nM | 503 nM
C[N+](C)(CC#Cc1ccccc1)CC#Cc1ccccc1 | 1930 nM | > 100000 nM | 679 nM
CCC(C(=O)N1CCN(Cc2ccccc2)CC1)c1ccccc1 (stereo not given) | 6910 nM | > 100000 nM | 677 nM
CCCn1nc(Oc2nc(NCC)cc(OC)n2)ccc1=O | 384 nM | > 100000 nM | 677 nM
Cc1ccc(F)cc1NC(=O)Cn1c2ccccc2c(=O)c2cc(Cl)ccc21 | 1180 nM | > 100000 nM | 694 nM
c1ccc(CNc2nc(Nc3ccccc3)nc3ccccc23)cc1 | 158 nM | 13500 nM | 93.4 nM
CCOC(=O)c1ccc(N2CCN(c3cc(C)ccc3C)CC2)c(NC(=O)Nc2ccc(Cl)cc2)c1 | > 3540 nM | > 100000 nM | 691 nM
CCc1n(CC(=O)OC2CC(C)CCC2C(C)C)c2ccccc2[n+]1C (stereo not given) | 267 nM | 29900 nM | 203 nM
CCOc1ccc2[nH]c(=O)c(CN(CCCN3CCOCC3)C(=S)NCCCN(CC)CC)cc2c1 | 2610 nM | > 100000 nM | 679 nM
COc1ccc(CCNC(=S)Nc2ccccc2C)cc1OC | 1100 nM | > 100000 nM | 698 nM
O=C(Cn1cc([N+](=O)[O-])nc1[N+](=O)[O-])N1CCN(c2ccc(F)cc2)CC1 | 1070 nM | 33600 nM | 234 nM
COc1cccc(-c2ccc(O)c(CN(C)C3CCCCC3)c2)n1 | 1150 nM | > 13000 nM | 90.3 nM
Cc1nc(N2CCN(c3ccccn3)CC2)c2c(C)c(C(=O)Nc3c(F)cccc3F)sc2n1 | 3140 nM | > 100000 nM | 694 nM
O=C(NC(=CC=Cc1ccccc1)C(=O)N1CCOCC1)c1ccc(Br)cc1 | > 10400 nM | > 100000 nM | 683 nM
CNc1ccccc1C(=O)N(C)CCc1ccccc1 | > 1250 nM | > 10000 nM | 68.3 nM
Oc1ccc(-c2ccccn2)cc1CNC1CCN(Cc2ccccc2)CC1 | 411 nM | 21000 nM | 143 nM
Cc1ccccc1-c1cccc(CN2CCCCC2CCn2cc(C(=O)NC3CC3)nn2)c1 (stereo not given) | 1470 nM | > 100000 nM | 685 nM
CC(=O)Nc1ccc(C2NC(=O)NC3=Nc4ccccc4SC(c4ccccc4)=C32)cc1 (stereo not given) | 1020 nM | > 100000 nM | 689 nM
COc1ccc(CNc2cc(-c3ccc(F)c(F)c3)nc3ccnn23)cc1 | 675 nM | > 100000 nM | 687 nM
COc1ccc(C(=O)ON=C(N)Cc2ccc(Cl)cc2Cl)cc1[N+](=O)[O-] | 4980 nM | > 100000 nM | 675 nM
CC(NC(=O)C(=O)N1CCCCC1)C(c1cccs1)N1CCOCC1 (stereo not given) | > 1680 nM | > 100000 nM | 675 nM
CCOC(=O)c1cnc2c(C)cc(C)cc2c1Nc1ccc(C(C)=O)cc1 | 749 nM | > 100000 nM | 675 nM
Cc1nnc(Nc2ccc(F)cc2)c2ccccc12 | > 1250 nM | > 10000 nM | > 68.9 nM

SMILES | EC50 (Plasmodium falciparum [1]) | CC50 [2] | EC50 (Plasmodium falciparum [3])
Cc1cc(Nc2ccc(Cl)c(Cl)c2)n2ncnc2n1 | 1680 nM | > 100000 nM | 674 nM
COc1ccc(Cl)cc1NC(=S)NNC(=O)c1cccnc1 | 536 nM | > 100000 nM | 664 nM
O=C(Nc1ccc(-n2cnnn2)cc1)C1CCN(Cc2cc3ccccc3o2)CC1 | 198 nM | > 61900 nM | 416 nM
O=c1c2c([nH]c3ccccc13)CCCCCCCCCC2 | 277 nM | > 100000 nM | 671 nM
Cc1ccc(-n2c(-c3ccccc3)cc(C=NNC(=O)c3cccc(-n4c(C)ccc4C)c3)c2-c2ccccc2)cc1 | 867 nM | > 100000 nM | 684 nM
c1ccc(CC[n+]2cc(-c3ccccc3)n3c2CCC3)cc1 | 660 nM | > 100000 nM | 684 nM
Clc1ccc(-c2c[n+](Cc3ccc(Cl)c(Cl)c3)c3n2CCC3)cc1 | 446 nM | > 93600 nM | 623 nM
CN(C)c1cc[n+](CC(=O)c2cccs2)cc1 | 649 nM | > 100000 nM | 688 nM
OC1CCCCC1C1(NC(=S)Nc2ccccc2)CCCCC1 (stereo not given) | 211 nM | 22800 nM | 153 nM
CCOc1ccc(C(=O)C(CCC(C[N+]2(C)CCCCCC2)C(=O)c2ccc(OCC)cc2)C[N+]2(C)CCCCCC2)cc1 (stereo not given) | 615 nM | > 100000 nM | 693 nM
Cc1cc(C)[n+](C)n1CC(O)Cn1c2ccccc2c2ccccc21 (stereo not given) | 1220 nM | > 100000 nM | 691 nM
Cn1ccnc1C1CCCCN1C(=O)c1cc(COc2ccc(F)cc2Cl)on1 (stereo not given) | 1830 nM | > 100000 nM | 673 nM
CCCN(CCC)C(=O)Cn1ccc(=N)c2ccccc21 | 1200 nM | > 100000 nM | 671 nM
COc1ccc(Nc2nc(NN=Cc3cc4c(cc3Br)OCO4)nc(Nc3ccc([N+](=O)[O-])cc3)n2)cc1 | 460 nM | > 100000 nM | 684 nM
Cc1ccc(C(=O)Oc2ccccc2-c2nc3ccccn3c2NC(C)(C)CC(C)(C)C)cc1[N+](=O)[O-] | 1240 nM | > 10000 nM | 67.5 nM
O=C1CN(C(=O)CCC2CCCC2)C(c2ccc(F)cc2)c2cc(Cl)ccc2N1 (stereo not given) | 231 nM | 26300 nM | 180 nM
Cc1c(-c2ccccc2)c2ccccc2n1CCc1ccc(C)[n+](C)c1 | 647 nM | > 100000 nM | 690 nM
Cc1ccc(C[n+]2cc(-c3ccc(C)cc3)n3c2CCC3)cc1 | 538 nM | 34500 nM | 240 nM
COc1cccc(-c2ccc(O)c(CN3CCCC(C)C3)c2)n1 (stereo not given) | 543 nM | > 10000 nM | 67.9 nM
N#Cc1ccc(N2CCN(C(=O)c3ccc(F)cc3Cl)CC2)cc1 | 155 nM | > 10000 nM | 67.5 nM
CCCCNC(=O)c1nn(-c2ccc(OC)cc2)c(=O)c2ccccc12 | 2250 nM | > 100000 nM | 680 nM
C[n+]1cccc(C=C2c3ccccc3-c3ncccc32)c1 | 173 nM | > 100000 nM | 678 nM

Source: ChEMBL document CHEMBL1156829 (Proc Natl Acad Sci U S A, 2008)
